What was measured:
Assay in all cases: Bliss excess, mean over the matrix (fraction); higher = more synergy
CS1 (Chondrosarcoma) = tested on: CS1 (Chondrosarcoma)
How it was run: (§1)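 Bliss excess equals the observed combination effect minus the expected value EA + EB − EA·EB, where EA and EB are the effects of each agent alone. Combination Emax is the second-highest inhibition within the matrix. Inhibition was scaled from CellTiter-Glo 2.0 luminescence, with 0 set by vehicle wells and 1 by blank wells, after 72 hours of two-drug dosing of cells plated in 1536-well plates.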

[1] = tested on: D-283MED (Other Solid Carcinomas)
How it was run: as §1

D-392MG (Glioblastoma) = tested on: D-392MG (Glioblastoma)
How it was run: as §1

H4 (Low Grade Glioma) = tested on: H4 (Low Grade Glioma)
How it was run: as §1

[2] = tested on: HCC-827 (Lung Adenocarcinoma)
How it was run: as §1

[3] = tested on: HCC1143 (Breast Carcinoma)
How it was run: as §1

HCC38 (Breast Carcinoma) = tested on: HCC38 (Breast Carcinoma)
How it was run: as §1

[4] = tested on: HLE (Hepatocellular Carcinoma)
How it was run: as §1

HuO9 (Osteosarcoma) = tested on: HuO9 (Osteosarcoma)
How it was run: as §1

MCF7 (Breast Carcinoma) = tested on: MCF7 (Breast Carcinoma)
How it was run: as §1

[5] = tested on: MES-SA (Other Solid Carcinomas)
How it was run: as §1

MSTO-211H (Mesothelioma) = tested on: MSTO-211H (Mesothelioma)
How it was run: as §1

[6] = tested on: P31-FUJ (Acute Myeloid Leukemia)
How it was run: as §1

[7] = tested on: SK-LMS-1 (Other Solid Carcinomas)
How it was run: as §1

[8] = tested on: SKN-3 (Head and Neck Carcinoma)
How it was run: as §1

[9] = tested on: SNG-M (Endometrial Carcinoma)
How it was run: as §1

[10] = tested on: SW48 (Colorectal Carcinoma)
How it was run: as §1

[11] = tested on: SW948 (Colorectal Carcinoma)
How it was run: as §1

Saos-2 (Osteosarcoma) = tested on: Saos-2 (Osteosarcoma)
How it was run: as §1

[12] = tested on: TYK-nu (Ovarian Carcinoma)
How it was run: as §1

SMILES | Bliss excess (CS1 (Chondrosarcoma)) | Bliss excess [1] | Bliss excess (D-392MG (Glioblastoma)) | Bliss excess (H4 (Low Grade Glioma)) | Bliss excess [2] | Bliss excess [3] | Bliss excess (HCC38 (Breast Carcinoma)) | Bliss excess [4] | Bliss excess (HuO9 (Osteosarcoma)) | Bliss excess (MCF7 (Breast Carcinoma)) | Bliss excess [5] | Bliss excess (MSTO-211H (Mesothelioma)) | Bliss excess [6] | Bliss excess [7] | Bliss excess [8] | Bliss excess [9] | Bliss excess [10] | Bliss excess [11] | Bliss excess (Saos-2 (Osteosarcoma)) | Bliss excess [12]
COc1nnc2ccc(N3CCC(c4ccc(OCCN5CCN(C)C(=O)[C@H]5C)cc4)CC3)nn12 [AZD5153] + C[C@@H]1COCCN1C2=NC(=NC(=C2)C3(CC3)[S@](=N)(=O)C)C4=C5C=CNC5=NC=C4 [AZD6738] (first compound max 1 µM, 7x7, partner max 10 µM) | -0.0559 | -0.0087 | -0.0033 | -0.0081 | 0.08 | -0.0036 | -0.0182 | 0.0608 | 0.031 | -0.0228 | 0.0781 | -0.0354 | -0.0685 | -0.0163 | 0.0128 | -0.0014 | -0.109 | -0.0493 | 0.0391 | -0.0386
COc1nnc2ccc(N3CCC(c4ccc(OCCN5CCN(C)C(=O)[C@H]5C)cc4)CC3)nn12 [AZD5153] + Cc1c2c(nn1C)CSCc1cc(n(C)n1)CSc1cc(c3ccccc3c1)OCCCc1c(C(=O)O)n(C)c3c-2c(Cl)ccc13 [AZD5991] (first compound max 1 µM, 7x7, partner max 1 µM) | -0.0342 | -0.0409 | -0.0388 | -0.0287 | -0.0225 | 0.0412 | -0.0019 | 0.0047 | 0.0377 | -0.0003 | -0.0125 | 0.0307 | -0.0869 | 0.0003 | -0.0234 | -0.0033 | 0.015 | -0.0482 | 0.0143 | -0.0363
COc1nnc2ccc(N3CCC(c4ccc(OCCN5CCN(C)C(=O)[C@H]5C)cc4)CC3)nn12 [AZD5153] + Cn1cnc2c(F)c(Nc3ccc(Br)cc3Cl)c(C(=O)NOCCO)cc21 [Selumetinib] (first compound max 1 µM, 7x7, partner max 10 µM) | 0.01 | -0.0211 | 0.0081 | -0.0184 | -0.0543 | 0.0561 | -0.0392 | 0.0073 | 0.0052 | -0.0307 | 0.0199 | 0.007 | 0.0339 | 0.0383 | -0.019 | 0.0042 | 0.0619 | -0.0006 | -0.0452 | -0.044
Cc1c2c(nn1C)CSCc1cc(n(C)n1)CSc1cc(c3ccccc3c1)OCCCc1c(C(=O)O)n(C)c3c-2c(Cl)ccc13 [AZD5991] + C1CN(CCC1(C(=O)N[C@@H](CCO)C2=CC=C(C=C2)Cl)N)C3=NC=NC4=C3C=CN4 [Capivasertib] (first compound max 1 µM, 7x7, partner max 3 µM) | -0.0261 | 0.0094 | 0.0557 | 0.0378 | -0.0212 | 0.0114 | 0.0062 | 0.0341 | 0.0085 | 0.0778 | -0.0144 | -0.0066 | 0.0182 | 0.0054 | -0.0285 | -0.0065 | -0.034 | 0.0308 | 0.0473 | 0.0172
Cc1c2c(nn1C)CSCc1cc(n(C)n1)CSc1cc(c3ccccc3c1)OCCCc1c(C(=O)O)n(C)c3c-2c(Cl)ccc13 [AZD5991] + CC1(C)CCC(CN2CCN(c3ccc(C(=O)NS(=O)(=O)c4ccc(NCC5CCOCC5)c([N+](=O)[O-])c4)c(Oc4cnc5[nH]ccc5c4)c3)CC2)=C(c2ccc(Cl)cc2)C1 [Venetoclax] (first compound max 1 µM, 7x7, partner max 1 µM) | -0.0418 | 0.0701 | 0.0314 | 0.0384 | -0.0269 | 0.0051 | -0.0307 | -0.0061 | 0.0182 | 0.0623 | -0.0068 | -0.0455 | 0.137 | -0.0422 | -0.03 | -0.027 | 0.0059 | -0.003 | 0.0174 | -0.0144
Cc1c2c(nn1C)CSCc1cc(n(C)n1)CSc1cc(c3ccccc3c1)OCCCc1c(C(=O)O)n(C)c3c-2c(Cl)ccc13 [AZD5991] + CCN(CCO)CCCOc1ccc2c(Nc3cc(CC(=O)Nc4cccc(F)c4)[nH]n3)ncnc2c1 [AZD2811] (first compound max 1 µM, 7x7, partner max 1 µM) | -0.044 | 0.051 | 0.0121 | 0.0207 | 0.0011 | 0.0514 | 0.058 | -0.0018 | -0.0035 | 0.0081 | 0.138 | 0.0477 | -0.0193 | -0.0538 | 0.0134 | 0.0446 | -0.0063 | -0.0014 | 0.0534 | 0.0438
Cc1c2c(nn1C)CSCc1cc(n(C)n1)CSc1cc(c3ccccc3c1)OCCCc1c(C(=O)O)n(C)c3c-2c(Cl)ccc13 [AZD5991] + CN(C)CCCOc1ccc(-c2ccc3ncc4c(c3c2)n(C2CCOCC2)c(=O)n4C)cn1 [AZD0156] (first compound max 1 µM, 7x7, partner max 1 µM) | 0.0158 | 0.0096 | -0.0225 | 0.0376 | 0.011 | -0.0287 | -0.0182 | 0.0424 | -0.0171 | -0.0063 | 0.017 | -0.0129 | 0.0014 | -0.0645 | -0.0173 | 0.01 | 0.0051 | -0.0205 | -0.0158 | -0.034
Cc1c2c(nn1C)CSCc1cc(n(C)n1)CSc1cc(c3ccccc3c1)OCCCc1c(C(=O)O)n(C)c3c-2c(Cl)ccc13 [AZD5991] + C[C@@H](Nc1cc(F)cc(F)c1)c1cc(C(=O)N(C)C)cc2c(=O)cc(N3CCOCC3)oc12 [AZD8186] (first compound max 1 µM, 7x7, partner max 3 µM) | 0.0031 | -0.0186 | 0.0111 | -0.0054 | 0.0064 | 0.0441 | 0.011 | 0.0254 | 0.0127 | -0.01 | -0.0381 | -0.0019 | -0.041 | -0.0056 | -0.0606 | -0.0242 | -0.0271 | -0.0498 | -0.0271 | -0.0118
Cc1c2c(nn1C)CSCc1cc(n(C)n1)CSc1cc(c3ccccc3c1)OCCCc1c(C(=O)O)n(C)c3c-2c(Cl)ccc13 [AZD5991] + Cc1cc2ncnn2cc1Nc1ncc2c(n1)n(C1CCOCC1)c(=O)n2C [AZD7648] (first compound max 1 µM, 7x7, partner max 10 µM) | -0.0282 | -0.0158 | -0.0664 | 0.0222 | -0.0476 | 0.0124 | -0.0418 | -0.0253 | -0.018 | 0.0011 | 0.0111 | -0.025 | 0.0055 | -0.0392 | -0.032 | 0.0071 | -0.036 | -0.0328 | -0.014 | -0.0539
Cc1c2c(nn1C)CSCc1cc(n(C)n1)CSc1cc(c3ccccc3c1)OCCCc1c(C(=O)O)n(C)c3c-2c(Cl)ccc13 [AZD5991] + Cn1cnc2c(F)c(Nc3ccc(Br)cc3Cl)c(C(=O)NOCCO)cc21 [Selumetinib] (first compound max 1 µM, 7x7, partner max 3 µM) | -0.0136 | -0.0265 | 0.0339 | -0.0265 | -0.0091 | 0.0552 | -0.0386 | -0.0459 | -0.0386 | -0.0435 | -0.0247 | -0.006 | 0.0399 | -0.0257 | 0.0324 | -0.0258 | 0.0102 | -0.0388 | -0.007 | -0.0052
Cc1cc2ncnn2cc1Nc1ncc2c(n1)n(C1CCOCC1)c(=O)n2C [AZD7648] + C=CCn1c(=O)c2cnc(Nc3ccc(N4CCN(C)CC4)cc3)nc2n1-c1cccc(C(C)(C)O)n1 [AZD1775] (first compound max 10 µM, partner max 1 µM) | 0.0046 | -0.0959 | 0.0035 | -0.082 | -0.0044 | -0.0183 | -0.0124 | -0.0273 | -0.0298 | 0.0442 | -0.0182 | 0.067 | -0.0027 | -0.0661 | -0.0033 | 0.0527 | -0.0702 | -0.047 | -0.0696 | -0.0394
Cc1cc2ncnn2cc1Nc1ncc2c(n1)n(C1CCOCC1)c(=O)n2C [AZD7648] + CCN(CCO)CCCOc1ccc2c(Nc3cc(CC(=O)Nc4cccc(F)c4)[nH]n3)ncnc2c1 [AZD2811] (first compound max 10 µM, 7x7, partner max 1 µM) | -0.0403 | 0.0609 | -0.0108 | 0.006 | -0.0026 | -0.003 | -0.0383 | 0.0271 | 0.051 | -0.0135 | 0.0834 | 0.0509 | -0.017 | -0.0162 | -0.0037 | 0.0507 | -0.073 | -0.0979 | 0.0364 | 0.0625
Cc1cc2ncnn2cc1Nc1ncc2c(n1)n(C1CCOCC1)c(=O)n2C [AZD7648] + CN(C)CCCOc1ccc(-c2ccc3ncc4c(c3c2)n(C2CCOCC2)c(=O)n4C)cn1 [AZD0156] (first compound max 10 µM, 7x7, partner max 1 µM) | -0.0028 | -0.0339 | -0.0405 | -0.0253 | 0.0386 | 0.0031 | 0.0157 | -0.0274 | 0.0522 | -0.0048 | 0.0228 | 0.0388 | 0.0381 | 0.0028 | -0.0064 | 0.0073 | -0.0183 | 0.0122 | -0.016 | -0.0465
Cc1cc2ncnn2cc1Nc1ncc2c(n1)n(C1CCOCC1)c(=O)n2C [AZD7648] + C[C@@H]1COCCN1C2=NC(=NC(=C2)C3(CC3)[S@](=N)(=O)C)C4=C5C=CNC5=NC=C4 [AZD6738] (first compound max 10 µM, 7x7, partner max 10 µM) | 0.0024 | -0.1 | 0.0217 | -0.0116 | 0.0048 | -0.0328 | 0.0245 | 0.0049 | -0.0537 | -0.0192 | 0.0541 | 0.0403 | 0.0131 | 0.0215 | -0.0279 | -0.0217 | -0.0195 | -0.0422 | -0.0169 | -0.034
NC1(C(=O)N[C@@H](CCO)c2ccc(Cl)cc2)CCN(c2ncnc3[nH]ccc23)CC1 [Capivasertib] + CC(=O)c1c(C)c2cnc(Nc3ccc(N4CCNCC4)cn3)nc2n(C2CCCC2)c1=O [Palbociclib] (first compound max 10 µM, 7x7, partner max 10 µM) | 0.016 | -0.0227 | 0.0094 | 0.0014 | -0.034 | 0.0317 | -0.023 | -0.002 | -0.0311 | 0.049 | -0.0017 | -0.0547 | -0.0807 | 0.0514 | -0.0502 | -0.0601 | -0.0217 | -0.0442 | 0.0005 | -0.0208
